How the values were obtained:
Type in all cases: cell-based, human
[1] = system: HeLa cells; test: TNFα-induced mitochondrial depolarization in Annexin V-separated cells
Source text: FIG. 7: Endogenous Expression of IG20 variants and Susceptibility To TNF-Induced Apoptosis. (A) Magnetic Separation of Apoptotic and TNFα-resistant Cells. Apoptotic cells were magnetized and physically separated from TNFα-resistant cells using the Annexin V-conjugated microbeads, as described in Materials and Methods. mRNAs were then isolated from apoptotic and TNFα-resistant cells separately and were used in RT-PCR using IG20-specific primers F-1 and B-1. […] In contrast, marked increase in expression of IG20 with no expression of DENN-SV (the anti-apoptotic variant) is seen in apoptotic cells. (B) TNFα-Induced Mitochondrial Depolarization in apoptotic and TNFα-resistant cells. Cells in (A) were then assessed for mitochondrial depolarization. […] Bars represent averages from three wells for each group. The experiment was repeated at least three times and consistent results were obtained.
Cells were plated in 6-well plates at 1.2×10^5 in growth medium. Twenty four hours later, cells were either untreated or treated with 10 ng/ml TNF-α and 10 μg/ml cyclohexamide (CHX) for 6 hours. To assess the effects of TNFα and CHX treatment, cells were either stained with 100 nM tetramethylrhodamine ethyl ester (TMRE) (Molecular Probes, Eugene, Oreg.) for 10 minutes, harvested by trypsinization, washed once with ice-cold PBS and then subjected to FACS analysis, or were stained with either trypan blue and evaluated for viability using a light microscope, or with 1 μg/ml Hoechst 33342 (Sigma) for 10 minutes and evaluated for chromatin condensation in situ using a Diaphot 200 inverted microscope with an epifluorescence attachment (Nikon, Melville, N.Y.).
To separate cells that were undergoing apoptosis, or resistant to apoptosis upon TNFα treatment, the Annexin V microbeads (Miltenyi Biotec, Inc.) were used according to manufacturer's protocol. Annexin V is a phospholipid-binding protein that recognizes phosphatidylserine on the surface of apoptotic cells. […]

[2] = system: HeLa IG20 cells; test: TRAIL or TNF-α/cycloheximide induced apoptosis in HeLa IG20 cells (caspase activation, TMRE, Hoechst); conditions: 5 hours; TRAIL 100 ng/mL, or 10 ng/mL TNF-α and 10 μg/mL cycloheximide
Experimental: FIG. 13: IG20 transfected HeLa cells show increased apoptosis upon TRAIL treatment. HeLa-IG20 and control cells were treated for 5 hours with TRAIL at 100 ng/mL or with 10 ng/mL of TNF-α and 10 μg/mL of Cycloheximide and analyzed for apoptosis. A) Activation of caspases—cells were incubated for 10 minutes with FITC labeled general caspase inhibitor VAD FMK (Val-Ala-Asp-flouromethyl ketone) and analyzed by FACS. Numbers in the histogram indicate percentage of FITC positive cells. B) Mitochondrial Depolarization—Loss of the dye TMRE is indicative of mitochondrial depolarization and the numbers shown in the FACS histograms represent percentage of TMRE negative cells. All the above experiments were done in triplicates and results shown are representative histograms. […] D) Percentage of cells with condensed chromatin was calculated by counting 3 fields containing at least 200 cells each and error bars indicate mean±S.D.
Mitochondrial depolarization and chromatin condensation—2×10^5 HeLa IG20 and Vector control cells were plated into a 12-well culture dish and allowed to grow for 48 hours. […] Cells were assessed for loss of mitochondrial membrane potential by staining with tetramethylrhodamine ethyl ester (100 nm, Molecular Probes, Eugene, Oreg.) for 10 minutes, washed once with ice-cold PBS, collected and subjected to FACS analysis. […]

[3] = system: caspase-3; test: Caspase-3 activation in HeLa IG20 cells; conditions: 5 hours; TRAIL, or TNF-α and cycloheximide
Experimental: FIG. 15: IG20 Cells show increased specific activation of caspases upon TRAIL treatment A) Initiator caspases—Hela IG20 cells and control cells treated with TRAIL for 1H, were stained, with flourochrome-conjugated peptide inhibitors of specific active caspases as indicated, fixed and analyzed by FACS. B) Caspase-8 cleavage—IG20 HeLa cells and control cells were treated with TRAIL for either 1H or 3H, lysed and immunoblotted for the 10 kDa cleaved product of active caspase-8 using the 6B6 monoclonal antibody. […]
Caspase activation—To assess the general activation of caspases, cells were stained with FITC tagged caspase inhibitor Val-Ala-Asp-flouromethyl ketone Promega, Madison, Wis.) for 10 minutes at 37° C., washed and analyzed by FACS for percentage of FITC positive cells. The initiator caspases were analyzed by using carboxyflourescein labeled peptide flouromethlyketone inhibitors (FAM-peptide-FMK) directed against active caspase-8, 9 and 10 (APOLOGIX caspase detection kit, Cell Tech Inc., Minneapolis, Minn.). […] Cells were collected, washed once, resuspended in Perm/wash buffer and analyzed by FACS for PE positive population. […]

[4] = system: HeLa-control, HeLa-IG20 and HeLa-DENN-SV cells; test: Vinblastine-induced apoptosis, chromatin condensation by Hoechst staining; conditions: 0.05 μM vinblastine, Hoechst 24 hours after treatment
Experimental: (§1) FIG. 8: Effect of IG20 and DENN-SV on Cell Survival and Apoptosis of TransfectedCells after Vinblastine Treatment. (A) Cell survival after Vinblastine treatment. […] (B) Vinblastine-Induced apoptosis. Cells treated with 0.05 μM vinblastine were stained with Hoechst 24 hours after the treatment in order to determine the percentage of cells with condensed chromatin. P values were <0.05 for all test groups.
(§2) Cells were plated (10^5 cells/well) the day before treatment into 6 well plates. Cells were treated with etoposide for 24 hours or vinblastine for 1 hour at indicated concentrations. After treatment, cells were washed 3 times with PBS and then replenished with fresh media and incubated at 37° C. Two weeks later, cells were fixed in ice-cold methanol and stained with crystal violet for visualization.
Cells were stained in situ with 1 μg/ml of Hoechst 33342 (Sigma, St. Louis, Mo.) in DMEM for 10 minutes at 37° C. Chromatin condensation was then visualized in situ using a Diaphot 200 inverted microscope with an epifluorescence attachment (Nikon, Inc., Melville, N.Y.). 10 different fields were randomly chosen to determine the average number of cells with condensed chromatin (apoptotic) as compared to live cells.

[5] = system: HeLa-control, HeLa-IG20 and HeLa-DENN-SV cells; test: Cell survival (crystal violet colonies) after vinblastine treatment; conditions: dose of 0.05 ∝M, two weeks
Experimental: as §1, §2

[6] = system: HeLa-control, HeLa-IG20 and HeLa-DENN-SV cells; test: Colony formation after etoposide treatment (crystal violet)
Experimental: (§3) FIG. 9: Effects of IG20 and DENN-SV on survival and proliferation of cells treated with etoposide. (A) Cell survival after etoposide treatment. Cells were treated with the indicated doses of etoposide and allowed to grow in culture for 2 weeks and stained with crystal violet. (B) Enumeration of colonies after etoposide treatment. Three different experiments using the indicated doses of etoposide were used to determine the effects of the drug on HeLa-control, HeLa-IG20 and HeLa-DENN-SV cells. P values were <0.05 for all test groups. (C) Etoposide-Induced apoptosis. Cells treated with the indicated doses of etoposide were stained with Hoechst as described in Materials and Methods and evaluated for chromatin condensation under a microscope. P values were <0.05 for all test groups. (D) Cell Division after Etoposide Treatment. Cells were stained with CFDA and then subjected to 5 μM etoposide treatment for 5 days. Cells were then harvested and evaluated by FACS for CFDA staining intensity. Histograms show relative levels of CFDA dye retention. The peak on the left within each histogram represents cells that have undergone cell division, and therefore, partially lost CFDA staining, whereas the peak on the right represents undivided cells that retained maximum CFDA staining.
as §2

[7] = system: HeLa-control, HeLa-IG20 and HeLa-DENN-SV cells; test: Etoposide-induced apoptosis, Hoechst chromatin condensation
Experimental: as §3
Cells were stained in situ with 1 μg/ml of Hoechst 33342 (Sigma, St. Louis, Mo.) in DMEM for 10 minutes at 37° C. […]

[8] = system: HeLa-control, HeLa-IG20 and HeLa-DENN-SV cells; test: Cell division after etoposide treatment, CFDA staining; conditions: 5 μM etoposide for 5 days
Experimental: as §3
1×10^5 Cells/100 mm^2 plate were stained with 2 μM CFDA (Molecular Probes, Eugene, Oreg.) in situ in 5 ml PBS/100 mm^2 for 10 minutes at 37° C. Cells were then washed 3 times and replenished with new media Cells were harvested 5 days later and analyzed by FACS.

TNFα
Apoptosis (cells with depolarized mitochondria) ([1]; Annexin V-negative HeLa cells after TNFα and CHX): 8% | Apoptosis (cells with depolarized mitochondria) ([1]; Annexin V-positive HeLa cells after TNFα and CHX): 93% | Apoptosis (cells with depolarized mitochondria) ([1]; unseparated control HeLa cells): 35% | Increase in cells undergoing apoptosis, HeLa IG20 versus control cells [2]: two-fold increase | Relative increase in caspase-3 activation, HeLa IG20 relative to control cells [3]: less than two fold increase

CC[C@]1(O)C[C@@H]2CN(CCc3c([nH]c4ccccc34)[C@@](C(=O)OC)(c3cc4c(cc3OC)N(C)[C@H]3[C@@](O)(C(=O)OC)[C@H](OC(C)=O)[C@]5(CC)C=CCN6CC[C@]43[C@@H]65)C2)C1 [vinblastine]
Vinblastine-induced apoptosis as measured by chromatin condensation ([4]; HeLa-DENN-SV cells): 21% | Vinblastine-induced apoptosis as measured by chromatin condensation ([4]; HeLa-IG20 cells): 70% | Vinblastine-induced apoptosis as measured by chromatin condensation ([4]; HeLa-controls): 46% | Cell survival (colonies) after vinblastine treatment ([5]; HeLa-DENN-SV cells): not significantly affected | Cell survival (colonies) after vinblastine treatment ([5]; HeLa-IG20 cells): only a few HeLa-IG20 colonies detectable | Cell survival (colonies) after vinblastine treatment ([5]; HeLa-control cells): intermediary response

COc1cc([C@@H]2c3cc4c(cc3[C@@H](O[C@@H]3O[C@@H]5CO[C@@H](C)O[C@H]5[C@H](O)[C@H]3O)[C@H]3COC(=O)[C@H]23)OCO4)cc(OC)c1O [etoposide]
Colonies formed after etoposide treatment ([6]; HeLa-DENN-SV cells, 5 μM etoposide): 125 colonies | Colonies formed after etoposide treatment ([6]; HeLa-DENN-SV cells, 20 μM etoposide): approximately 40 colonies | Growth after etoposide treatment ([6]; HeLa-DENN-SV cells, 30 μM etoposide): able to grow | Colonies formed after etoposide treatment ([6]; HeLa-IG20 cells, 5 μM etoposide, on average): 8 colonies | Colonies formed after etoposide treatment ([6]; HeLa-IG20 cells, 20 μM etoposide): very few or no colonies | Colonies formed after etoposide treatment ([6]; HeLa-control cells, 5 μM etoposide): 39 colonies | Etoposide-induced apoptosis ([7]; HeLa-DENN-SV cells): noticeable resistance to etoposide-induced apoptosis | Etoposide-induced apoptosis ([7]; HeLa-IG20 cells): did not show a marked increase in susceptibility to apoptosis | Cell division as indicated by CFDA staining ([8]; DENN-SV cells): 36% | Cell division as indicated by CFDA staining ([8]; HeLa-IG20 cells): 9% | Cell division as indicated by CFDA staining ([8]; control cells): 24%
